Assay results reported in article PMC11341970 (RSC Advances, 2024).
Where two headings read alike, the source gives them in different places.

Assays:
EeAChE = EeAChE (Electrophorus electricus, UniProt O42275); assay: AChE inhibition assay; format: biochemical
hBACE 1 = hBACE 1 (Homo sapiens, UniProt P56817); assay: BACE 1 inhibition assay; format: biochemical
[1] = read-out: eeAChE IC50 (μM) ± SD, Ellman assay, mean ± SD of three experiments
[2] = read-out: hBACE 1 IC50 (μM) ± SD, FRET assay, mean ± SD of three experiments

EeAChE, sequence (O42275 24-633): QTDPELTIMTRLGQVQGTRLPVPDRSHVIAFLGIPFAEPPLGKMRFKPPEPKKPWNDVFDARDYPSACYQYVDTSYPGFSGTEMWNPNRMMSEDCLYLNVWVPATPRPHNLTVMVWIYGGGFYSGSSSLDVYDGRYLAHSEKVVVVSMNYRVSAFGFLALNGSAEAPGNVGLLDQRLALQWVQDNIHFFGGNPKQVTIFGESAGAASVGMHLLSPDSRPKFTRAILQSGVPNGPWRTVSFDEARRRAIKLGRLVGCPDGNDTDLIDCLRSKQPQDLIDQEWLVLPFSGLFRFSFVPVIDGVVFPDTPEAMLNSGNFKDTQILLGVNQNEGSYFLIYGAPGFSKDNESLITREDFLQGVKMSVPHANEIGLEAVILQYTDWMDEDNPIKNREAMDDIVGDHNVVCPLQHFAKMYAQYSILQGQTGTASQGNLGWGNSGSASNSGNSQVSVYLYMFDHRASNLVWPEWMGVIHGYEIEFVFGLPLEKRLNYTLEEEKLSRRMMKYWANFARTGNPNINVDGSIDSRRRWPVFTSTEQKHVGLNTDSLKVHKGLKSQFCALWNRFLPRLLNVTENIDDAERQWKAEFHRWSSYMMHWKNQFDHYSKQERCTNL
hBACE 1, sequence (P56817 46-501): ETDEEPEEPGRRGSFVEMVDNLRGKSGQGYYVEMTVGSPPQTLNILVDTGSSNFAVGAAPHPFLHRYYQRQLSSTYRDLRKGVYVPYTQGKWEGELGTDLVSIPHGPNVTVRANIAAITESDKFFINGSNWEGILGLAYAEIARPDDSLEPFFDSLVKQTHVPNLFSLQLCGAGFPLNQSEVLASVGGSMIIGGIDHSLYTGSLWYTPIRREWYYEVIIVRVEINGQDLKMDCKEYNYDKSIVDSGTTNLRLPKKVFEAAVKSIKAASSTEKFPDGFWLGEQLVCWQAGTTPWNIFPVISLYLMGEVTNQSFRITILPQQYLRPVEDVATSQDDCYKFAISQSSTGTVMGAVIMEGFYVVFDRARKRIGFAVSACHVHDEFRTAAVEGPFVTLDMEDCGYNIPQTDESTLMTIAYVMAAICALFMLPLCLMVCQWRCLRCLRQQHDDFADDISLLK

Structure (SMILES) | IC50 (EeAChE) [µM] | IC50 (hBACE 1) [µM] | IC50 (EeAChE; [1]) [µM] | IC50 (hBACE 1; [2]) [µM] | AChE inhibition (% of inhibition) (EeAChE; concentration not given) [%]
[H]/N=C(/N)NN=C(/C=C/c1ccccc1)c1cccn1Cc1cc(F)ccc1C [Compound 2p, (Z)-2-((E)-1-(1-(5-Fluoro-2-methylbenzyl)-1H-pyrrol-2-yl)-3-phenylallylidene)hydrazine-1-carboximidamide] | 80.13 ± 0.16 | 145 ± 0.28 |  |  | 
[H]/N=C(/N)NN=C(/C=C/c1ccccc1)c1cccn1Cc1ccc(C)cc1 [Compound 2f, (Z)-2-((E)-1-(1-(4-Methylbenzyl)-1H-pyrrol-2-yl)-3-phenylallylidene)hydrazine-1-carboximidamide] | 176.7 ± 0.64 | 85.7 ± 2.43 |  |  | 
[H]/N=C(/N)NN=C(/C=C/c1ccccc1)c1cccn1Cc1ccc(F)cc1C(F)(F)F [Compound 2h, (Z)-2-((E)-1-(1-(4-Fluoro-2-(trifluoromethyl)benzyl)-1H-pyrrol-2-yl)-3-phenylallylidene)hydrazine-1-carboximidamide] | 57.1 ± 3.91 | 74.2 ± 1.8 |  |  | 
[H]/N=C(/N)NN=C(/C=C/c1ccccc1)c1cccn1Cc1ccc(CCCC)cc1 [Compound 2j, (Z)-2-((E)-1-(1-(4-Butylbenzyl)-1H-pyrrol-2-yl)-3-phenylallylidene)hydrazine-1-carboximidamide] | 55.4 ± 4.19 | 132.7 ± 1.22 |  |  | 
[H]/N=C(/N)NN=C(/C=C/c1ccccc1)c1cccn1Cc1cc(F)ccc1F [Compound 2d, (Z)-2-((E)-1-(1-(2,5-Difluorobenzyl)-1H-pyrrol-2-yl)-3-phenylallylidene)hydrazine-1-carboximidamide] |  |  | 153 ± 1.98 | 107 ± 3.04 | 
[H]/N=C(/N)NN=C(/C=C/c1ccc(OC)c(OC)c1)c1cccn1Cc1ccccc1 [Compound 1g, (Z)-2-((E)-1-(1-Benzyl-1H-pyrrol-2-yl)-3-(3,4-dimethoxyphenyl)allylidene)hydrazine-1-carboximidamide] | 146 ± 2.4 | 114 ± 1.7 |  |  | 
[H]/N=C(/N)NN=C(/C=C/c1ccccc1)c1cccn1Cc1cc(Cl)ccc1Cl [Compound 2e, (Z)-2-((E)-1-(1-(2,5-Dichlorobenzyl)-1H-pyrrol-2-yl)-3-phenylallylidene)hydrazine-1-carboximidamide] | 75.6 ± 3.09 | 178.2 ± 0.92 |  |  | 
[H]/N=C(/N)NN=C(/C=C/c1ccc(OC)c(OC)c1)c1cccn1Cc1ccc(F)cc1C(F)(F)F [Compound 3c, (Z)-2-((E)-3-(3,4-Dimethoxyphenyl)-1-(1-(4-fluoro-2-(trifluoromethyl)benzyl)-1H-pyrrol-2-yl)allylidene)hydrazine-1-carboximidamide] |  |  | 58.19 ± 0.44 | 204 ± 2.33 | 
[H]/N=C(/N)NN=C(/C=C/c1ccc(F)c(F)c1)c1cccn1Cc1ccc(C(C)(C)C)cc1 [Compound 3f, (Z)-2-((E)-1-(1-(4-(tert-Butyl)benzyl)-1H-pyrrol-2-yl)-3-(3,4-difluorophenyl)allylidene)hydrazine-1-carboximidamide] |  |  | 126.1 ± 0.71 | 135.9 ± 0.71 | 
[H]/N=C(/N)NN=C(/C=C/c1ccc(C(C)(C)C)cc1)c1cccn1Cc1ccc(-c2ccccc2)cc1 [Compound 3g, (Z)-2-((E)-1-(1-([1,1′-Biphenyl]-4-ylmethyl)-1H-pyrrol-2-yl)-3-(4-(tert-butyl)phenyl)allylidene)hydrazine-1-carboximidamide] | 76.1 ± 0.79 | 185.4 ± 1.84 |  |  | 
[H]/N=C(/N)NN=C(/C=C/c1ccc(C(C)(C)C)cc1)c1cccn1Cc1ccc(Br)cc1 [Compound 3i, (Z)-2-((E)-1-(1-(4-Bromobenzyl)-1H-pyrrol-2-yl)-3-(4-(tert-butyl)phenyl)allylidene)hydrazine-1-carboximidamide] | 83.94 ± 0.74 | 193 ± 2.12 |  |  | 
[H]/N=C(/N)NN=C(/C=C/c1ccc([N+](=O)[O-])cc1)c1cccn1Cc1ccccc1 [Compound 1c, (Z)-2-((E)-1-(1-Benzyl-1H-pyrrol-2-yl)-3-(4-nitrophenyl)allylidene)hydrazine-1-carboximidamide] | 43.25 ± 0.41 | 194.3 ± 0.99 |  |  | 38.07
[H]/N=C(/N)NN=C(/C=C/c1ccccc1)c1cccn1Cc1cc(OC)cc(OC)c1 [Compound 2a, (Z)-2-((E)-1-(1-(3,5-Dimethoxybenzyl)-1H-pyrrol-2-yl)-3-phenylallylidene)hydrazine-1-carboximidamide] | 231.2 ± 2.26 | 95.8 ± 3.45 |  |  | 
[H]/N=C(/N)NN=C(/C=C/c1ccc(C(C)(C)C)cc1)c1cccn1Cc1ccc(F)cc1F [Compound 3d, (Z)-2-((E)-3-(4-(tert-Butyl)phenyl)-1-(1-(2,4-difluorobenzyl)-1H-pyrrol-2-yl)allylidene)hydrazine-1-carboximidamide] |  |  | 104.3 ± 0.14 | 221.8 ± 1.27 | 
[H]/N=C(/N)NN=C(/C=C/c1ccc(OC)cc1)c1cccn1Cc1ccccc1 [Compound 1f, (Z)-2-((E)-1-(1-Benzyl-1H-pyrrol-2-yl)-3-(4-methoxyphenyl)allylidene)hydrazine-1-carboximidamide] | 139.1 ± 0.35 | 173 ± 1.06 |  |  | 
[H]/N=C(/N)NN=C(/C=C/c1ccccc1)c1cccn1Cc1cccc(Br)c1 [Compound 2m, (Z)-2-((E)-1-(1-(3-Bromobenzyl)-1H-pyrrol-2-yl)-3-phenylallylidene)hydrazine-1-carboximidamide] | 51.14 ± 0.22 | 134 ± 3.11 |  |  | 
[H]/N=C(/N)NN=C(/C=C/c1ccc(F)cc1)c1cccn1Cc1ccc(Br)cc1 [Compound 3a, (Z)-2-((E)-1-(1-(4-Bromobenzyl)-1H-pyrrol-2-yl)-3-(4-fluorophenyl)allylidene)hydrazine-1-carboximidamide] |  |  | 86.09 ± 0.33 | 165.7 ± 1.34 | 
[H]/N=C(/N)NN=C(/C=C/c1ccccc1)c1cccn1Cc1ccccc1 [Compound 1a, (Z)-2-((E)-1-(1-Benzyl-1H-pyrrol-2-yl)-3-phenylallylidene)hydrazine-1-carboximidamide] | 215.3 ± 0.14 | 169.9 ± 1.27 |  |  | 
[H]/N=C(/N)NN=C(/C=C/c1ccccc1Cl)c1cccn1Cc1ccccc1 [Compound 1b, (Z)-2-((E)-1-(1-Benzyl-1H-pyrrol-2-yl)-3-(2-chlorophenyl)allylidene)hydrazine-1-carboximidamide] | 174 ± 0.92 | 183.8 ± 0.92 |  |  | 
[H]/N=C(/N)NN=C(/C=C/c1ccccc1F)c1cccn1Cc1ccccc1 [Compound 1e, (Z)-2-((E)-1-(1-Benzyl-1H-pyrrol-2-yl)-3-(2-fluorophenyl)allylidene)hydrazine-1-carboximidamide] | 172.3 ± 1.56 | 174.5 ± 1.48 |  |  | 
[H]/N=C(/N)NN=C(/C=C/c1ccc(C(F)(F)F)cc1)c1cccn1Cc1ccc(CCCC)cc1 [Compound 3b, (Z)-2-((E)-1-(1-(4-Butylbenzyl)-1H-pyrrol-2-yl)-3-(4-(trifluoromethyl)phenyl)allylidene)hydrazine-1-carboximidamide] |  |  | 57.4 ± 1.12 | 204.6 ± 0.42 | 
[H]/N=C(/N)NN=C(/C=C/c1ccccc1)c1cccn1Cc1ccc(C(C)(C)C)cc1 [Compound 2q, (Z)-2-((E)-1-(1-(4-(tert-Butyl)benzyl)-1H-pyrrol-2-yl)-3-phenylallylidene)hydrazine-1-carboximidamide] | 48.52 ± 0.23 | 167.5 ± 0.71 |  |  | 
[H]/N=C(/N)NN=C(/C=C/c1ccccc1)c1cccn1Cc1ccc(C(C)C)cc1 [Compound 2r, (Z)-2-((E)-1-(1-(4-Isopropylbenzyl)-1H-pyrrol-2-yl)-3-phenylallylidene)hydrazine-1-carboximidamide] | 50.4 ± 0.91 | 191.3 ± 1.41 |  |  | 
